Blank lines part the entries; values can stand above or below the substance they belong to. Where no end group is shown, it is not given here.
Key:
[1] = test system: calcitonin receptor N135A, cAMP production; details: cited from earlier work
Protocol: (§1) Several receptor–ligand interaction studies introducing mutagenesis to calcitonin and amylin receptors are also available. Among these previous reports, an extensive receptor–ligand interaction study was reported where alanine-scanning mutagenesis was applied to the upper segment of transmembrane helix 1 (TM1) of the calcitonin receptor and its extension into the receptor ECD [31]. Although the study focused on TM1, some residues of calcitonin receptor ECD were mutated and were tested for peptide ligand interaction. When the N135 residue was mutated to alanine, the ...

[2] = test system: calcitonin receptor N135A, phosphorylation of extracellular signal-regulated kinase (ERK); details: cited from earlier work
Protocol: as §1

[3] = test system: calcitonin receptor N135A; details: cited from earlier work
Protocol: as §1

[4] = molecular target: T1, amylin receptor 1 ECD with the E123A mutation (Homo sapiens, UniProt O60894+P30988, E123A); assay: Competition binding assay with non-labeled sCT(22–32), E123A; details: competition with 10 nM FITC-sCT(22–32), receptor ECD E123A 365 nM, 1 hour, anisotropy
T1 construct: pHLsec/hRAMP1.24–111-(GSA)3-hCTR.34–141.E123A-H6 (D-pJJ004); H6 (hexahistidine) (C); made in house; host or cells: HEK293 (transient transfection, secreted, N-glycosylated)
Protocol: (§2) The overall procedure of the FP binding assay with a saturation binding format was previously described. A total of 10 nM FITC-labeled sCT(22–32) and 10 nM FITC-labeled AC413(6–25) with Y25P mutation were used for the receptor–ligand binding assay. For the saturation binding format, the non-linear regression curves were generated by using user-defined equations that were previously described for affinity calculation. FITC-labeled peptide probes were incubated for 1 h at room temperature with the purified receptor protein prior to fluorescence signal measurement. A BioTek Synergy H1 microplate reader (Agilent, Santa Clara, CA, USA) was used to evaluate fluorescence polarization/anisotropy. […] When total fluorescence intensity of the FITC-labeled probes was altered with receptor binding by more than 10% from the starting fluorescence value, the anisotropy was adjusted to reflect the fluorescence change as previously described. […] PRISM 5.0 was fully functional, with the user-defined equations used predicting KD values from fluorescence polarization/anisotropy. […]
(§3) The mixture of the competitive peptide with varying concentrations, 10 nM FITC -sCT(22 –32), and the receptor ECD protein with the concentration described earlier was incubated for 1 hour. The anisotropy signal was measured by using a BioTek Synergy H1 microplate reader (Agilent, Santa Clara, CA, USA). […]

[5] = molecular target: T2, amylin receptor 1 ECD with the E123D mutation (Homo sapiens, UniProt O60894+P30988, E123D); assay: Competition binding assay with non-labeled sCT(22–32), E123D; details: competition with 10 nM FITC-sCT(22–32), receptor ECD E123D 53 nM, 1 hour, anisotropy
T2 construct: pHLsec/hRAMP1.24–111-(GSA)3-hCTR.34–141.E123D-H6 (D-pJJ001); H6 (hexahistidine) (C); made in house; host or cells: HEK293 (transient transfection, secreted, N-glycosylated)
Protocol: as §2, §3

[6] = molecular target: T3, wild-type amylin receptor 1 ECD (Homo sapiens, UniProt O60894+P30988); assay: Competition binding assay with non-labeled sCT(22–32), WT; details: competition with 10 nM FITC-sCT(22–32), receptor ECD 81 nM, 1 hour, anisotropy
T3 construct: pHLsec/hRAMP1.24–111-(GSA)3-hCTR.34–141-H6 (H-pSL005); H6 (hexahistidine) (C); made in house; host or cells: HEK293 (transient transfection, secreted, N-glycosylated)
Protocol: as §2, §3

amylin receptors = details: mutated human amylin, cell-based system; cited from earlier work
Source text: Receptor–ligand interaction studies with alanine-scanning mutagenesis have been reported for amylin receptors. Lee et al. first introduced alanine-scanning mutagenesis to calcitonin and AC413 peptides and examined the role of each amino acid in the interaction with amylin receptor 1 ECD [20]. They reported critical amino acids of peptide ligands for amylin receptor 1 ECD binding. Their results were supported by the following structural studies with the calcitonin receptor ECD and salmon calcitonin fragments. Recently, Lee S introduced alanine-scanning mutagenesis to a rat amylin ...

[7] = test system: calcitonin receptor D101A; details: cAMP production, calcitonin receptor activation, cited from earlier work
Protocol: (§4) Gingell et al. addressed the receptor interaction with human calcitonin and rat amylin by introducing mutations to the peptide-binding pocket of the calcitonin receptor and amylin receptor 1 ECDs. The peptide potency for calcitonin receptor and amylin receptor 1 activation was investigated by measuring cAMP production. Multiple residues located in the peptide-binding pocket were tested for peptide-mediated receptor activation. They reported the mutational effects of D101A and N124A that were used in the current study. Consistent with our binding results, the D101A mutation markedly decr ...

[8] = test system: calcitonin receptor and amylin receptor 1 with N124A; details: cAMP production, in words; cited from earlier work
Source text: The N124 residue of the calcitonin receptor appeared dispensable for amylin receptor 1 activation mediated by calcitonin or amylin. The affinity decreases for receptor ECD by 8-fold and more may be insufficient to produce the potency decrease in the activation of the full-length calcitonin and amylin rec ...

[9] = cited from earlier work
Source text: (§5) Due to the inherent nature of the calcitonin receptor as the main component of the functional amylin receptor, a calcitonin peptide is used as an agonist for amylin receptors. […] Accordingly, salmon calcitonin is well-characterized as a dual agonist for calcitonin and amylin receptors and is commonly used for research targeting amylin receptors.

[10] = test system: amylin receptor 1 with D101A; details: cAMP production, amylin receptor 1 activation; cited from earlier work
Protocol: as §4

pancreatic β-cells = details: in words; cited from earlier work
Source text: as §5

[11] = test system: human calcitonin and amylin receptors; details: in words; cited from earlier work
Source text: as §5

T3 sequence (O60894 24-111): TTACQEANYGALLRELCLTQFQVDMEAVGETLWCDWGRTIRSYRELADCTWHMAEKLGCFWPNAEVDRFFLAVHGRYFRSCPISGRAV
T3 sequence (P30988 34-141): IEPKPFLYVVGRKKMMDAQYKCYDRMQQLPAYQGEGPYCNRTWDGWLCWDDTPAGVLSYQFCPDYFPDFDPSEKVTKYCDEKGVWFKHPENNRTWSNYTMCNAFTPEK
T2 sequence (O60894 24-111): as the sequence (O60894 24-111) above
T2 sequence (P30988 34-141 E123D): as the sequence (P30988 34-141) above, with E90D counted along it
T1 sequence (O60894 24-111): as the sequence (O60894 24-111) above
T1 sequence (P30988 34-141 E123A): as the sequence (P30988 34-141) above, with E90A counted along it

Substance: calcitonin
decrease of functional affinity (pKA) [1]: less than 10 fold | decrease of functional affinity (pKA) [2]: less than 10 fold

Substance: porcine calcitonin: peptide hormone (CSNLSTCVLSAYWRNLNNFHRFSGMGFGPETP; ends and bridges not checked; cysteine pairing not given here; UniProt P01259 1-32, looked up)
effect of N135A on binding [3]: abolished the binding

Ki [4]: 2510 nM | Ki [5]: 1230 nM | Ki [6]: 891 nM
Substance: YPRTNTGSGTP-NH2 [non-labeled sCT(22–32)]

Substance: Q10A: human amylin with mutation Q10A (KCNTATCATARLANFLVHSSNNFGAILSSTNVGSNTY; ends and bridges not checked; cysteine pairing not given here; UniProt P10997 34-70, looked up, variant Q10A)
amylin receptor activation potency (amylin receptors): significantly increased the amylin receptor activation potency

Substance: A5S: human amylin with mutation A5S (KCNTSTCATQRLANFLVHSSNNFGAILSSTNVGSNTY; ends and bridges not checked; cysteine pairing not given here; UniProt P10997 34-70, looked up, variant A5S)
amylin receptor activation potency (amylin receptors): significantly increased the amylin receptor activation potency

Substance: human calcitonin: peptide hormone
decrease of potency ([7]; D101A): 17 fold | effect of N124A on potency [8]: did not significantly change the potency | effect of N135A on binding [3]: abolished the binding

Substance: rat amylin: rodent (rat/mouse) amylin
aggregation propensity ([9]; rodent (rat/mouse) amylin versus human amylin): less propensity for forming aggregates than human amylin | decrease of potency [10]: 68 fold | effect of D101A on potency ([7]; in words): not significantly altered | effect of N124A on potency [8]: did not significantly change the potency

Substance: V17A: human amylin with mutation V17A (KCNTATCATQRLANFLAHSSNNFGAILSSTNVGSNTY; ends and bridges not checked; cysteine pairing not given here; UniProt P10997 34-70, looked up, variant V17A)
amylin receptor activation potency (amylin receptors): significantly increased the amylin receptor activation potency

Substance: human amylin: peptide hormone secreted from pancreatic β-cells, 37 amino acids (KCNTATCATQRLANFLVHSSNNFGAILSSTNVGSNTY; not fully specified (C-terminus, bridges); cysteine pairing not given here; UniProt P10997 34-70, looked up)
effect of aggregates on pancreatic β-cells (pancreatic β-cells): harm pancreatic β-cells | aggregation ([9]; human amylin): reported to form aggregates

Substance: salmon calcitonin
binding and receptor activation potency [11]: strong receptor activation potency

Reference: PMC12292835, “Amylin Receptor 1 Mutagenesis Revealed a Potential Role of Calcitonin Serine 29 in Receptor Interaction” (Biomedicines, 2025)
